Test [1] concerns primary human hepatocytes. As to the kind of experiment: CC20 hepatic nuclei (20% reduction); higher = less toxic. The gist of the method: (§1)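 P. vivax sporozoites from mosquitoes fed on patient isolates were used to infect primary human hepatocytes, which received compounds at 8 points (10 uM[…]) or 12 points in duplicate (50 uM–280 pM). High-content imaging of immunostained wells recorded schizont growth area, hypnozoite count and hepatic nuclei relative to DMSO and positive-control wells. Potency, maximum inhibition and nuclei-loss cytotoxicity were fitted in CDD Vault from the best-quality run, omitting toxic bell-shaped points.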

The subject of test [2] is Plasmodium vivax liver stage (primary human hepatocyte culture). As to the kind of experiment: maximum inhibition of schizont net growth area; higher = more active. The gist of the method: as §1
The test system of test [3] is Plasmodium falciparum 3D7 asexual blood stage. As to the kind of experiment: EC50 asexual blood stage growth. The settings on record: serum: 0.5% AlbuMAX. The procedure: (§2)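 The Reference Compound Library was tested by 10-point 3-fold dose response against P. cynomolgi Berok K4 asexual blood stages (SYBR proliferation assay, mefloquine background control). Culture medium contained 0.5% AlbuMAX or 20% M. fascicularis serum. P. falciparum 3D7 was tested in a 72-h SYBR Green assay with 0.5% AlbuMAX. Values are geometric mean EC50 over independent experiments; 10 uM is the top dose.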

Test [4] has as its system Plasmodium cynomolgi Berok K4 asexual blood stage. As to the kind of experiment: EC50 asexual blood stage growth. As to the method: as §2
The test system of test [5] is Plasmodium vivax liver stage (primary human hepatocyte culture). The essentials: as §1
Setting [6] is: P. vivax isolate: Pv668, hepatocyte lot: BGW, assay mode: Radical Cure, 8-day (treatment from day 5 post-infection).
Where [7] appears, read: P. vivax isolate: Pv914, hepatocyte lot: BGW, assay mode: Prophylactic, 6-day.
Where [8] appears, read: serum: 20% M. fascicularis serum.
[9] abbreviates: P. vivax isolate: Pv360, hepatocyte lot: UBV, assay mode: Radical Cure, 8-day (treatment from day 5 post-infection).
The mark [10] stands for this setting: P. vivax isolate: Pv992, hepatocyte lot: BGW, assay mode: Prophylactic, 6-day.
Where [11] appears, read: P. vivax isolate: Pv360, hepatocyte lot: UBV, assay mode: Prophylactic, 6-day.

The text below walks through data of the supplement of paper PMC8497498.

Turning to `O[C@H](c1cc(C(F)(F)F)nc2c(C(F)(F)F)cccc12)[C@@H]1CCCCN1` [(+)-Mefloquine], the CC20 hepatic nuclei in test [1] (setting [6]) was found to be 23.3 µM; in test [1] (setting [7]) it was 13.2 µM. In addition, the figures for the maximum inhibition in test [2] (setting [6]) and in test [2] (setting [7]) were 93.9% and 98.7%, respectively. Further, the “EC50 asexual blood stage growth” value in test [3] came out at 0.0179 µM; in test [4] (serum: 0.5% AlbuMAX) it was 0.0312 µM; in test [4] (setting [8]), 0.06 µM. The EC50 hypnozoite quantity was > 50 µM in test [5] (setting [6]) and 14.8 µM in test [5] (setting [7]). Moreover, in test [5] (setting [7]), the “EC50 schizont net growth area” value worked out at 5.73 µM.
On to `CCN(CC)CCCNc1ccnc2cc(Cl)ccc12` [AQ-13], for which the CC20 hepatic nuclei in test [1] (setting [7]) is > 10 µM. Further, in test [2] (setting [7]), the maximum inhibition was determined as 56.1%. Also, the “EC50 asexual blood stage growth” value came out at 0.016 µM in test [3], 0.0787 µM in test [4] (serum: 0.5% AlbuMAX) and 0.0559 µM in test [4] (setting [8]). The EC50 hypnozoite quantity in test [5] (setting [7]) was > 10 µM.
Take `Cc1nc(Nc2ncc(N3CCN(C)C(C)C3)c(Nc3cc(C)n(C)n3)n2)cc(C2CC2)c1F` (stereo not given) [AZ412]: the CC20 hepatic nuclei in test [1] (setting [9]) and in test [1] (setting [7]) was > 10 µM each time. For the same molecule, the maximum inhibition came out at 104% in test [2] (setting [9]) and 99.7% in test [2] (setting [7]). The “EC50 asexual blood stage growth” value in test [3] turned out to be 0.0232 µM; in test [4] (serum: 0.5% AlbuMAX), 0.0768 µM; in test [4] (setting [8]), 0.0567 µM. Moreover, the values for the EC50 hypnozoite quantity in test [5] (setting [9]) and in test [5] (setting [7]) were > 10 µM and > 3.33 µM, respectively. Also, the “EC50 schizont net growth area” value in test [5] (setting [9]) came out at 0.381 µM; in test [5] (setting [7]), 0.686 µM.
Take `CCN(CC)Cc1cc(Nc2ccnc3cc(Cl)ccc23)ccc1O` [Amodiaquine]: the CC20 hepatic nuclei in test [1] (setting [10]) is > 10 µM. Moreover, the maximum inhibition in test [2] (setting [10]) is 87.2%. The entries for the “EC50 asexual blood stage growth” value in test [3], in test [4] (serum: 0.5% AlbuMAX) and in test [4] (setting [8]) were 0.006 µM, 0.0198 µM and 0.0081 µM, respectively. In test [5] (setting [10]), the EC50 hypnozoite quantity was > 10 µM. Besides, in test [5] (setting [10]), the “EC50 schizont net growth area” value came to 0.0141 µM.
In the case of `COC1OC2OC3(C)CCC4C(C)CCC(C1C)C24OO3` (stereo not given) [Artemether], in test [1] (setting [11]), the CC20 hepatic nuclei was > 10 µM. Moreover, the maximum inhibition in test [2] (setting [11]) stood at 60.4%. The “EC50 asexual blood stage growth” value in test [3] was 0.0575 µM; in test [4] (serum: 0.5% AlbuMAX), 0.0068 µM; in test [4] (setting [8]) it was 0.0065 µM. The EC50 hypnozoite quantity in test [5] (setting [11]) is > 10 µM.
Take `CCC1OC(=O)C(C)C(OC2CC(C)(OC)C(O)C(C)O2)C(C)C(OC2OC(C)CC(N(C)C)C2O)C(C)(O)CC(C)CN(C)C(C)C(O)C1(C)O` (stereo not given) [Azithromycin]: the CC20 hepatic nuclei in test [1] (setting [7]) was > 10 µM. Also, the maximum inhibition in test [2] (setting [7]) was 63.3%. Moreover, the “EC50 asexual blood stage growth” value in test [3], in test [4] (serum: 0.5% AlbuMAX) and in test [4] (setting [8]) was > 10 µM in each case. Further, the EC50 hypnozoite quantity in test [5] (setting [7]) is > 10 µM. Moreover, in test [5] (setting [7]), the “EC50 schizont net growth area” value was > 0.37 µM.
As for `CC(C)N=C(N)N=C(N)Nc1ccc(Cl)c(Cl)c1` [Chlorproguanil], the CC20 hepatic nuclei in test [1] (setting [7]) was > 10 µM. The maximum inhibition in test [2] (setting [7]) is 98.1%. The “EC50 asexual blood stage growth” value is 5.34 µM in test [3], 8.45 µM in test [4] (serum: 0.5% AlbuMAX) and > 10 µM in test [4] (setting [8]). In addition, the EC50 hypnozoite quantity in test [5] (setting [7]) was > 10 µM. The “EC50 schizont net growth area” value in test [5] (setting [7]) was > 1.11 µM.
As to `CCCCCCC[C@@H]1CN[C@H](C(=O)NC(C(C)Cl)C2O[C@H](SC)[C@H](O)[C@@H](O)[C@H]2O)C1` (stereo partly drawn) [Cis-Mirincamycin], in test [1] (setting [7]), the CC20 hepatic nuclei was > 10 µM. In test [2] (setting [7]), the maximum inhibition is 69.3%. Moreover, the results for the “EC50 asexual blood stage growth” value in test [3], in test [4] (serum: 0.5% AlbuMAX) and in test [4] (setting [8]) were > 10 µM, 7.99 µM and > 10 µM, respectively. The EC50 hypnozoite quantity in test [5] (setting [7]) is > 10 µM.
